Strand notation (5' to 3'): a small letter for the sugar, then the base; units joined by * are phosphorothioate-linked, units joined directly phosphodiester-linked; [ ] holds rarer units or linkages, { } end groups; capitals alone tell only the bases. HELM strings list units from the 5' end as sugar, base in round brackets, then linkage (d deoxyribose, r ribose, m 2'-O-methyl, p phosphodiester). [sp] = phosphorothioate linkage; d = 2'-deoxy (DNA); m = 2'-O-methyl
Columns and labels:
[1] = target: CTNNB1; experiment: HEK293-TLR7, 100 nM ASO, then resiquimod
[2] = target: CTNNB1; experiment: HEK293-TLR8, 100 nM ASO, then resiquimod
[3] = target: LINC-PINT; experiment: HEK293-TLR7, 100 nM ASO, then resiquimod
[4] = target: LINC-PINT; experiment: HEK293-TLR8, 100 nM ASO, then resiquimod

| Substance | TLR7 signal (NF-kB luciferase) (% of resiquimod alone) [1] | TLR8 potentiation (NF-kB luciferase) (fold of resiquimod alone) [2] | TLR7 signal (NF-kB luciferase) (% of resiquimod alone) [3] | TLR8 potentiation (NF-kB luciferase) (fold of resiquimod alone) [4] |
| --- | --- | --- | --- | --- |
| RNA1{m(C)[sp].m(G)[sp].m(A)[sp].m(A)[sp].m(U)[sp].d(G)[sp].d(A)[sp].d(A)[sp].d(T)[sp].d(T)[sp].d(A)[sp].d(A)[sp].d(A)[sp].d(A)[sp].d(G)[sp].m(U)[sp].m(U)[sp].m(U)[sp].m(A)[sp].m(A)}$$$$ | 104 | 3.01 |  |  |
| RNA1{m(U)[sp].m(U)[sp].m(U)[sp].m(A)[sp].m(U)[sp].d(T)[sp].d(C)[sp].d(A)[sp].d(G)[sp].d(A)[sp].d(T)[sp].d(T)[sp].d(A)[sp].d(C)[sp].d(A)[sp].m(A)[sp].m(U)[sp].m(U)[sp].m(A)[sp].m(A)}$$$$ | 53.4 | 3.68 |  |  |
| RNA1{m(G)[sp].m(C)[sp].m(C)[sp].m(C)[sp].m(A)[sp].d(T)[sp].d(C)[sp].d(C)[sp].d(A)[sp].d(T)[sp].d(G)[sp].d(A)[sp].d(G)[sp].d(G)[sp].d(T)[sp].m(C)[sp].m(C)[sp].m(U)[sp].m(G)[sp].m(G)}$$$$ | 31.7 | 1.46 |  |  |
| RNA1{m(U)[sp].m(G)[sp].m(G)[sp].m(C)[sp].m(A)[sp].d(G)[sp].d(G)[sp].d(C)[sp].d(T)[sp].d(C)[sp].d(A)[sp].d(G)[sp].d(T)[sp].d(G)[sp].d(A)[sp].m(U)[sp].m(G)[sp].m(U)[sp].m(C)[sp].m(U)}$$$$ | 50.4 | 1.73 |  |  |
| RNA1{m(U)[sp].m(U)[sp].m(C)[sp].m(A)[sp].m(A)[sp].d(T)[sp].d(G)[sp].d(G)[sp].d(G)[sp].d(A)[sp].d(G)[sp].d(A)[sp].d(A)[sp].d(T)[sp].d(A)[sp].m(A)[sp].m(A)[sp].m(G)[sp].m(C)[sp].m(A)}$$$$ | 32.9 | 3.03 |  |  |
| RNA1{m(U)[sp].m(U)[sp].m(C)[sp].m(U)[sp].m(G)[sp].d(C)[sp].d(A)[sp].d(G)[sp].d(C)[sp].d(T)[sp].d(T)[sp].d(C)[sp].d(C)[sp].d(T)[sp].d(T)[sp].m(G)[sp].m(U)[sp].m(C)[sp].m(C)[sp].m(U)}$$$$ | 42.7 | 4.06 |  |  |
| RNA1{m(C)[sp].m(A)[sp].m(C)[sp].m(C)[sp].m(C)[sp].d(A)[sp].d(C)[sp].d(T)[sp].d(T)[sp].d(G)[sp].d(G)[sp].d(C)[sp].d(A)[sp].d(G)[sp].d(A)[sp].m(C)[sp].m(C)[sp].m(A)[sp].m(U)[sp].m(C)}$$$$ | 91.5 | 1.12 |  |  |
| RNA1{m(A)[sp].m(C)[sp].m(U)[sp].m(G)[sp].m(C)[sp].d(A)[sp].d(T)[sp].d(T)[sp].d(C)[sp].d(T)[sp].d(G)[sp].d(G)[sp].d(G)[sp].d(C)[sp].d(C)[sp].m(A)[sp].m(U)[sp].m(C)[sp].m(U)[sp].m(C)}$$$$ | 73.2 | 2.96 |  |  |
| RNA1{m(C)[sp].m(A)[sp].m(G)[sp].m(A)[sp].m(U)[sp].d(A)[sp].d(G)[sp].d(C)[sp].d(A)[sp].d(C)[sp].d(C)[sp].d(T)[sp].d(T)[sp].d(C)[sp].d(A)[sp].m(G)[sp].m(C)[sp].m(A)[sp].m(C)[sp].m(U)}$$$$ | 126 | 3.22 |  |  |
| RNA1{m(G)[sp].m(C)[sp].m(C)[sp].m(G)[sp].m(C)[sp].d(T)[sp].d(T)[sp].d(T)[sp].d(T)[sp].d(C)[sp].d(T)[sp].d(G)[sp].d(T)[sp].d(C)[sp].d(T)[sp].m(G)[sp].m(G)[sp].m(U)[sp].m(U)[sp].m(C)}$$$$ | 70.5 | 2 |  |  |
| RNA1{m(U)[sp].m(U)[sp].m(U)[sp].m(U)[sp].m(A)[sp].d(A)[sp].d(G)[sp].d(C)[sp].d(A)[sp].d(T)[sp].d(A)[sp].d(T)[sp].d(T)[sp].d(A)[sp].d(A)[sp].m(A)[sp].m(A)[sp].m(A)[sp].m(G)[sp].m(G)}$$$$ | 59.4 | 3.67 |  |  |
| RNA1{m(G)[sp].m(U)[sp].m(C)[sp].m(C)[sp].m(A)[sp].d(A)[sp].d(G)[sp].d(A)[sp].d(T)[sp].d(C)[sp].d(A)[sp].d(G)[sp].d(C)[sp].d(A)[sp].d(G)[sp].m(U)[sp].m(C)[sp].m(U)[sp].m(C)[sp].m(A)}$$$$ | 32.6 | 1.96 |  |  |
| RNA1{m(C)[sp].m(U)[sp].m(U)[sp].m(A)[sp].m(U)[sp].d(A)[sp].d(A)[sp].d(T)[sp].d(T)[sp].d(A)[sp].d(T)[sp].d(T)[sp].d(G)[sp].d(C)[sp].d(A)[sp].m(A)[sp].m(G)[sp].m(U)[sp].m(G)[sp].m(A)}$$$$ | 74.9 | 2.78 |  |  |
| RNA1{m(G)[sp].m(G)[sp].m(G)[sp].m(U)[sp].m(C)[sp].d(C)[sp].d(A)[sp].d(T)[sp].d(A)[sp].d(C)[sp].d(C)[sp].d(C)[sp].d(A)[sp].d(A)[sp].d(G)[sp].m(G)[sp].m(C)[sp].m(A)[sp].m(U)[sp].m(C)}$$$$ | 47.6 | 1.08 |  |  |
| RNA1{m(G)[sp].m(G)[sp].m(G)[sp].m(A)[sp].m(A)[sp].d(A)[sp].d(G)[sp].d(G)[sp].d(T)[sp].d(T)[sp].d(A)[sp].d(T)[sp].d(G)[sp].d(C)[sp].d(A)[sp].m(A)[sp].m(G)[sp].m(G)[sp].m(U)[sp].m(C)}$$$$ | 51.4 | 1.76 |  |  |
| RNA1{m(C)[sp].m(A)[sp].m(G)[sp].m(A)[sp].m(U)[sp].d(T)[sp].d(A)[sp].d(C)[sp].d(A)[sp].d(A)[sp].d(T)[sp].d(T)[sp].d(A)[sp].d(A)[sp].d(T)[sp].m(U)[sp].m(A)[sp].m(G)[sp].m(A)[sp].m(G)}$$$$ | 80.8 | 2.76 |  |  |
| RNA1{m(U)[sp].m(C)[sp].m(U)[sp].m(U)[sp].m(A)[sp].d(T)[sp].d(A)[sp].d(A)[sp].d(T)[sp].d(T)[sp].d(A)[sp].d(T)[sp].d(T)[sp].d(G)[sp].d(C)[sp].m(A)[sp].m(A)[sp].m(G)[sp].m(U)[sp].m(G)}$$$$ | 110 | 4.58 |  |  |
| RNA1{m(C)[sp].m(U)[sp].m(C)[sp].m(U)[sp].m(U)[sp].d(G)[sp].d(A)[sp].d(A)[sp].d(G)[sp].d(C)[sp].d(A)[sp].d(T)[sp].d(C)[sp].d(G)[sp].d(T)[sp].m(A)[sp].m(U)[sp].m(C)[sp].m(A)[sp].m(C)}$$$$ | 93.4 | 2.71 |  |  |
| RNA1{m(U)[sp].m(A)[sp].m(G)[sp].m(C)[sp].m(G)[sp].d(T)[sp].d(G)[sp].d(T)[sp].d(C)[sp].d(T)[sp].d(G)[sp].d(G)[sp].d(A)[sp].d(A)[sp].d(G)[sp].m(C)[sp].m(U)[sp].m(U)[sp].m(C)[sp].m(C)}$$$$ | 60.3 | 1.56 |  |  |
| RNA1{m(U)[sp].m(C)[sp].m(A)[sp].m(A)[sp].m(A)[sp].d(G)[sp].d(T)[sp].d(A)[sp].d(T)[sp].d(A)[sp].d(T)[sp].d(A)[sp].d(C)[sp].d(C)[sp].d(T)[sp].m(G)[sp].m(U)[sp].m(U)[sp].m(U)[sp].m(U)}$$$$ | 64.4 | 4.27 |  |  |
| RNA1{m(U)[sp].m(A)[sp].m(U)[sp].m(U)[sp].m(U)[sp].d(T)[sp].d(A)[sp].d(A)[sp].d(G)[sp].d(C)[sp].d(A)[sp].d(T)[sp].d(A)[sp].d(T)[sp].d(T)[sp].m(A)[sp].m(A)[sp].m(A)[sp].m(A)[sp].m(A)}$$$$ | 62.3 | 2.61 |  |  |
| RNA1{m(A)[sp].m(C)[sp].m(U)[sp].m(G)[sp].m(U)[sp].d(G)[sp].d(T)[sp].d(A)[sp].d(G)[sp].d(A)[sp].d(T)[sp].d(G)[sp].d(G)[sp].d(G)[sp].d(A)[sp].m(U)[sp].m(C)[sp].m(U)[sp].m(G)[sp].m(C)}$$$$ | 99.8 | 3.43 |  |  |
| RNA1{m(C)[sp].m(G)[sp].m(U)[sp].m(G)[sp].m(U)[sp].d(C)[sp].d(T)[sp].d(G)[sp].d(G)[sp].d(A)[sp].d(A)[sp].d(G)[sp].d(C)[sp].d(T)[sp].d(T)[sp].m(C)[sp].m(C)[sp].m(U)[sp].m(U)[sp].m(U)}$$$$ | 67 | 2.89 |  |  |
| RNA1{m(A)[sp].m(G)[sp].m(A)[sp].m(U)[sp].m(C)[sp].d(T)[sp].d(G)[sp].d(G)[sp].d(C)[sp].d(A)[sp].d(G)[sp].d(C)[sp].d(C)[sp].d(C)[sp].d(A)[sp].m(U)[sp].m(C)[sp].m(A)[sp].m(A)[sp].m(C)}$$$$ | 55.4 | 1.89 |  |  |
| mA*mC*mC*mC*mU*dT*dC*dT*dC*dT*dC*dT*dG*dG*dT*mC*mC*mC*mA*mU |  |  | 43.4 | 2.55 |
| mG*mU*mC*mC*mG*dT*dA*dC*dC*dT*dC*dC*dA*dC*dC*mC*mA*mC*mC*mG |  |  | 22.8 | 1.7 |
| mU*mG*mC*mU*mA*dT*dT*dC*dA*dT*dA*dT*dT*dT*dT*mU*mA*mU*mU*mU |  |  | 42.4 | 3.01 |
| mG*mU*mC*mC*mC*dA*dT*dC*dC*dC*dT*dT*dC*dT*dG*mC*mU*mG*mC*mC |  |  | 22.5 | 1.37 |
| mU*mC*mC*mC*mA*dT*dC*dC*dC*dT*dT*dC*dT*dG*dC*mU*mG*mC*mC*mA |  |  | 43.1 | 3.95 |
| mC*mC*mU*mA*mU*dT*dA*dA*dA*dA*dA*dA*dA*dT*dT*mU*mA*mU*mA*mC |  |  | 109 | 2.19 |
